According to ChEMBL document CHEMBL4364252, “Tetrahydropyrazolo[1,5-a]pyridine-fused steroids and their in vitro biological evaluation in prostate cancer” (2019):
Active and inactive are the calls of the source. The calls are words filed in the database; no cut-off is given here.

Tests used:
LNCaP [1] = assay: Antiproliferative activity against AR-positive human LNCAP cells assessed as cell viability at 10 uM measured after 72 hrs by resazurin dye based fluorescence assay relative to control; format: functional; conditions: read-out: Activity
LAPC4 [2] = assay: Antiproliferative activity against AR-positive human LAPC4 cells assessed as cell viability at 10 uM measured after 72 hrs by resazurin dye based fluorescence assay relative to control; format: functional; conditions: LAPC4, 72 h, read-out: Activity
PC-3 [3] = assay: Antiproliferative activity against AR-negative human PC3 cells assessed as cell viability at 10 uM measured after 72 hrs by resazurin dye based fluorescence assay relative to control; format: functional; conditions: PC-3, 72 h, read-out: Activity
CWR22R [4] = assay: Antiproliferative activity against AR-positive human 22Rv1 cells harboring ARE14 construct assessed as cell viability at 10 uM measured after 72 hrs by resazurin dye based fluorescence assay relative to control; format: functional; conditions: 22Rv1, 72 h, read-out: Activity
VCaP [5] = assay: Antiproliferative activity against AR-positive human VCaP cells assessed as cell viability at 10 uM measured after 72 hrs by resazurin dye based fluorescence assay relative to control; format: functional; conditions: read-out: Activity
CWR22R [6] = assay: Induction of apoptosis in R1881-activated AR-positive human 22Rv1 cells harboring ARE14 construct assessed as cleaved PARP level at 5 to 20 uM after 24 hrs by immunoblot analysis; format: functional, cell-based
VCaP [7] = assay: Induction of apoptosis in AR-positive human VCaP cells assessed as cleaved PARP level at 5 to 20 uM after 24 hrs by immunoblot analysis; format: functional, cell-based
LNCaP [8] = assay: Antiproliferative activity against AR-positive human LNCAP cells assessed as cell viability at 40 uM measured after 72 hrs by resazurin dye based fluorescence assay relative to control; format: functional; conditions: read-out: Activity
LAPC4 [9] = assay: Antiproliferative activity against AR-positive human LAPC4 cells assessed as cell viability at 40 uM measured after 72 hrs by resazurin dye based fluorescence assay relative to control; format: functional; conditions: LAPC4, 72 h, read-out: Activity
PC-3 [10] = assay: Antiproliferative activity against AR-negative human PC3 cells assessed as cell viability at 40 uM measured after 72 hrs by resazurin dye based fluorescence assay relative to control; format: functional; conditions: PC-3, 72 h, read-out: Activity
CWR22R [11] = assay: Antiproliferative activity against AR-positive human 22Rv1 cells harboring ARE14 construct assessed as cell viability at 40 uM measured after 72 hrs by resazurin dye based fluorescence assay relative to control; format: functional; conditions: 22Rv1, 72 h, read-out: Activity
VCaP [12] = assay: Antiproliferative activity against AR-positive human VCaP cells assessed as cell viability at 40 uM measured after 72 hrs by resazurin dye based fluorescence assay relative to control; format: functional; conditions: read-out: Activity
CWR22R [13] = assay: Effect on AR-V7 variant protein expression in AR-positive human 22Rv1 cells harboring ARE14 construct at 10 uM after 24 hrs by immunoblot analysis; format: functional, cell-based
[14] = target: T1, Androgen receptor (Homo sapiens) (UniProt P10275); assay: Inhibition of R1881 induced-AR transcriptional activity in AR-positive human 22Rv1 cells harboring ARE14 construct assessed as luciferase activity at 10 uM after 24 hrs by luciferase assay relative to control; set-up: scale not given: the % may be the effect or the level left
T1 sequence (whole entry): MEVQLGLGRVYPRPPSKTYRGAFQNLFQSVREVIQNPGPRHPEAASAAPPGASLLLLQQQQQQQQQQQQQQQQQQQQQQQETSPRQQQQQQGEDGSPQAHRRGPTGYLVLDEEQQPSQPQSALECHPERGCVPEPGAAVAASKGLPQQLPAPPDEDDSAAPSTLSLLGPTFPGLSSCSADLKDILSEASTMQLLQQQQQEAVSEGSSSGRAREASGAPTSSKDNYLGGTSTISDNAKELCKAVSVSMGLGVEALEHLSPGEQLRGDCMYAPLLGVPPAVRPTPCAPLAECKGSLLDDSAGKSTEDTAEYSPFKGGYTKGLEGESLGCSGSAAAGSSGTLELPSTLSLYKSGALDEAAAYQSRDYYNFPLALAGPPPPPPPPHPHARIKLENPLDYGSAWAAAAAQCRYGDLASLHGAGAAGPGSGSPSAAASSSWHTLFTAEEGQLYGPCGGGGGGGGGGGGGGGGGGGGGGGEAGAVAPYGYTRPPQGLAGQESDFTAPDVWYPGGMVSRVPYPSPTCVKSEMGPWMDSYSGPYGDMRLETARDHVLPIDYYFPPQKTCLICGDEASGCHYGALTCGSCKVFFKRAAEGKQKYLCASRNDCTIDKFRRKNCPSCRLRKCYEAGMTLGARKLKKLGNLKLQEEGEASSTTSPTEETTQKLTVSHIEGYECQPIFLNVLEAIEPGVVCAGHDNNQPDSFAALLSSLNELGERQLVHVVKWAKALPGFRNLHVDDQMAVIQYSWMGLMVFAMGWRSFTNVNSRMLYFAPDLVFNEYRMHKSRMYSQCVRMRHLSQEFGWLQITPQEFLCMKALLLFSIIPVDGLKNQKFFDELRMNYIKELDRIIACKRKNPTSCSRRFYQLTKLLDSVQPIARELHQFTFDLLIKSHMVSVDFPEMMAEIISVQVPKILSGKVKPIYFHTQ

CWR22R [15] = assay: Inhibition of colony formation in AR-positive human 22Rv1 cells harboring ARE14 construct at 1.25 to 20 uM incubated for 10 days by crystal violet staining; format: functional, cell-based
[16] = target: T1, Androgen receptor (Homo sapiens); assay: Inhibition of R1881 induced-AR transcriptional activity in AR-positive human 22Rv1 cells harboring ARE14 construct after 24 hrs by luciferase assay
[17] = target: T1, Androgen receptor (Homo sapiens); assay: Inhibition of AR transcriptional activity in AR-positive human VCaP cells assessed as decrease in NKX3.1 protein expression at 20 uM upto 72 hrs by immunoblot analysis; format: cell-based
[18] = target: T1, Androgen receptor (Homo sapiens); assay: Inhibition of AR transcriptional activity in AR-positive human VCaP cells assessed as decrease in PSA protein expression at 20 uM after 48 hrs by immunoblot analysis; format: cell-based
[19] = target: T1, Androgen receptor (Homo sapiens); assay: Inhibition of AR transcriptional activity in AR-positive human VCaP cells assessed as NKX3.1 protein expression at 5 to 20 uM after 24 hrs by immunoblot analysis; format: cell-based
[20] = target: T1, Androgen receptor (Homo sapiens); assay: Inhibition of AR transcriptional activity in AR-positive human VCaP cells assessed as PSA protein expression at 5 to 20 uM after 24 hrs by immunoblot analysis; format: cell-based
LAPC4 [21] = assay: Antiproliferative activity against AR-positive human LAPC4 cells assessed as growth inhibition measured after 72 hrs by resazurin dye based fluorescence assay; format: functional; conditions: LAPC4, 72 h
LNCaP [22] = assay: Antiproliferative activity against AR-positive human LNCAP cells assessed as growth inhibition measured after 72 hrs by resazurin dye based fluorescence assay; format: functional
PC-3 [23] = assay: Antiproliferative activity against AR-negative human PC3 cells assessed as growth inhibition measured after 72 hrs by resazurin dye based fluorescence assay; format: functional; conditions: PC-3, 72 h
CWR22R [24] = assay: Antiproliferative activity against human AR-positive 22Rv1 cells harboring ARE14 construct assessed as growth inhibition measured after 72 hrs by resazurin dye based fluorescence assay; format: functional; conditions: 22Rv1, 72 h
VCaP [25] = assay: Antiproliferative activity against AR-positive human VCaP cells assessed as growth inhibition measured after 72 hrs by resazurin dye based fluorescence assay; format: functional
[26] = target: T1, Androgen receptor (Homo sapiens); conditions: at 10 µM
Description: Inhibition of AR transcriptional activity in AR-positive human 22Rv1 cells harboring ARE14 construct assessed as suppression of NKX3.1 expression at 10 uM after 24 hrs by immunoblot analysis

[27] = target: T1, Androgen receptor (Homo sapiens); conditions: at 10 µM; remark: listed apart in the source
Description: Inhibition of AR transcriptional activity in AR-positive human 22Rv1 cells harboring ARE14 construct assessed as suppression of PSA expression at 10 uM after 24 hrs by immunoblot analysis

How did the viability at 10 µM (LNCaP [1]) turn out when C[C@]12CC[C@H](O)CC1=CC[C@@H]1[C@@H]2CC[C@]2(C)C(n3cnc4ccccc43)=CC[C@@H]12 [GALETERONE] was run?
The viability at 10 µM was 91.6%.

What about the viability at 10 µM (LAPC4 [2]) of the same compound?
Its viability at 10 µM is 92.8%.

What about the viability at 10 µM (PC-3 [3]) of the same compound?
Its viability at 10 µM is over 100%.

What about the viability at 10 µM (CWR22R [4]) of the same compound?
Its viability at 10 µM is over 100%.

What about the viability at 10 µM (VCaP [5]) of the same compound?
The viability at 10 µM was 72.9%.

What about the Activity (CWR22R [6]) of the same compound?
Its Activity is “Active”.

What about the Activity (VCaP [7]) of the same compound?
The Activity was “Active”.

With COC(=O)c1cnn2c1C[C@]1(C(C)=O)[C@@H](C[C@H]3[C@@H]4CCC5=CC(=O)CC[C@]5(C)[C@H]4CC[C@@]31C)C2 as the compound, how does the viability at 40 µM (LNCaP [8]) read?
The viability at 40 µM was 77.3%.

And the viability at 40 µM (LAPC4 [9])?
The viability at 40 µM was 95.1%.

And the viability at 40 µM (PC-3 [10])?
The viability at 40 µM was 98.3%.

And the viability at 40 µM (CWR22R [11])?
The viability at 40 µM was 80.4%.

And the viability at 40 µM (VCaP [12])?
Its viability at 40 µM is 85.1%.

And the Activity (CWR22R [13])?
Its Activity is “inactive”.

What about the Activity [14] of the same compound?
Its Activity is 40%.

What about the inhibition (CWR22R [15]) of the same compound?
The inhibition was “Active”.

What about the inhibition [16] of the same compound?
The inhibition was “Dose-dependent effect”.

What about the Activity (CWR22R [6]) of the same compound?
The Activity was “Active”.

What about the inhibition [17] of the same compound?
The inhibition was “Active”.

And the inhibition [18]?
Its inhibition is “Active”.

And the inhibition [19]?
Its inhibition is “inactive”.

What about the inhibition [20] of the same compound?
The inhibition was “inactive”.

What about the Activity (VCaP [7]) of the same compound?
Its Activity is “Active”.

What about the GI50 (LAPC4 [21]) of the same compound?
Its GI50 is over 40 µM.

And the GI50 (LNCaP [22])?
Its GI50 is over 40 µM.

What about the GI50 (PC-3 [23]) of the same compound?
The GI50 was over 40 µM.

What about the GI50 (CWR22R [24]) of the same compound?
The GI50 was over 40 µM.

What about the GI50 (VCaP [25]) of the same compound?
The GI50 was over 40 µM.

What about the inhibition [26] of the same compound?
The inhibition was “Active”.

And the inhibition [27]?
Its inhibition is “Active”.
